Results on 20 compounds are retold here after patent publication US8163793B2, “Proline derivatives” (Hoffman-La Roche Inc., priority 2009, dated 2012).

Where a name gives a salt, the structure may show the parent alone.

The target in one experiment is Cathepsin S (UniProt P25774). Kind of experiment: Cathepsin enzyme inhibition assay (fluorogenic peptide substrate Z-Val-Val-Arg-AMC), Cathepsin S. It counts as biochemical, human and mouse. The settings on record: enzyme 1 nM, substrate 20 μM, pH 6.5; read-out: CatS IC50. A digest of the protocol: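 Compounds were combined with 1 nM human or mouse enzyme, and substrate then started the reaction. The buffer was potassium phosphate (100 mM, pH 6.5) containing EDTA-Na 5 mM, Triton X-100 0.001% and […] 5 mM.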

A further experiment concerns the target Cat L (UniProt P07711). Kind of experiment: Cathepsin enzyme inhibition assay (fluorogenic peptide substrate Z-Val-Val-Arg-AMC), Cathepsin L. Particulars: for IC50: enzyme 1 nM, substrate 20 μM, pH 6.5, read-out: CatL IC50. It counts as biochemical, human and mouse. An outline of the steps: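 Fluorogenic cleavage of Z-Val-Val-Arg-AMC (20 μM) by 1 nM Cat L was monitored at ex 360/em 465 nm for 20 min, the linear phase. The buffer was 100 mM potassium phosphate pH 6.5 with 5 mM EDTA and DTT. IC50 values were derived by standard methods, in μM.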

With `CC(=O)N1C[C@H](S(=O)(=O)c2ccccc2C(F)(F)F)C[C@H]1C(=O)NC1(C#N)CC1` [Example 101, (2S,4R)-1-Acetyl-4-(2-trifluoromethyl-benzenesulfonyl)-pyrrolidine-2-carboxylic acid (1-cyano-cyclopropyl)-amide], the IC50 is 6.7 nM on Cathepsin S and no less than 25 µM at Cat L.

With `CCN1CCN(c2ccc(S(=O)(=O)[C@@H]3C[C@@H](C(=O)NC4(C#N)CC4)N(c4ncccc4C(F)(F)F)C3)c(Cl)c2)CC1` [Example 190, (2S,4R)-4-[2-Chloro-4-(4-ethyl-piperazin-1-yl)-benzenesulfonyl]-1-(3-trifluoromethyl-pyridin-2-yl)-pyrrolidine-2-carboxylic acid (1-cyano-cyclopropyl)-amide], the IC50 worked out at 1.5 nM on Cathepsin S and 5.16 µM on Cat L.

In the case of `CC(C)(C#N)NC(=O)[C@@H]1C[C@@H](S(=O)(=O)c2ccccc2Cl)CN1` [Example 44, (2S,4R)-4-(2-Chloro-benzenesulfonyl)-pyrrolidine-2-carboxylic acid (cyano-dimethyl-methyl)-amide Hydrochloride], the IC50 was 152 nM on Cathepsin S and no less than 25 µM on Cat L.

Take `N#CC1(NC(=O)[C@@H]2C[C@@H](S(=O)(=O)c3ccc(OCC(F)(F)F)cc3C(F)(F)F)CN2c2nnc(C(F)(F)F)s2)CC1` [Example 366, (2S,4R)-4-[4-(2,2,2-Trifluoro-ethoxy)-2-trifluoromethyl-benzenesulfonyl]-1-(5-trifluoromethyl-[1,3,4]thiadiazol-2-yl)-pyrrolidine-2-carboxylic acid (1-cyano-cyclopropyl)-amide]: the values for the IC50 on Cathepsin S and at Cat L were 0.327 nM and no less than 25 µM, respectively.

As to `N#CC1(NC(=O)[C@@H]2C[C@@H](S(=O)(=O)c3ccc(OC4COC4)cc3Cl)CN2C(=O)C2(C(F)(F)F)CC2)CC1` [Example 201, (2S,4R)-4-[2-Chloro-4-(oxetan-3-yloxy)-benzenesulfonyl]-1-(1-trifluoromethyl-cyclopropanecarbonyl)-pyrrolidine-2-carboxylic acid (1-cyano-cyclopropyl)-amide], the IC50 on Cathepsin S was 3.4 nM; at Cat L, no less than 25 µM.

Take `N#CC1(NC(=O)[C@@H]2C[C@@H](S(=O)(=O)c3ccc(-n4ccnc4)cc3C(F)(F)F)CN2)CC1` [Example 20, (2S,4R)-4-(4-Imidazol-1-yl-2-trifluoromethyl-benzenesulfonyl)-pyrrolidine-2-carboxylic acid (1-cyano-cyclopropyl)-amide hydrochloride]: the IC50 on Cathepsin S is 1 nM; at Cat L, no less than 25 µM.

For the compound `CC(C)C[C@]1(C(=O)NC2(C#N)CC2)C[C@H](S(C)(=O)=O)[C@@H](c2ccc(F)cc2)N1C(=O)OC(C)(C)C` [Example 125, (2R,4S,5R)-2-(1-Cyano-cyclopropylcarbamoyl)-5-(4-fluoro-phenyl)-2-isobutyl-4-methanesulfonyl-pyrrolidine-1-carboxylic acid tert.-butyl ester], the IC50 is 195 nM on Cathepsin S and no less than 25 µM on Cat L.

Take `N#CC1(NC(=O)[C@@H]2C[C@@H](S(=O)(=O)c3ccccc3CO)CN2)CC1` [Example 12, (2S,4R)-4-(2-Hydroxymethyl-benzenesulfonyl)-pyrrolidine-2-carboxylic acid (1-cyano-cyclopropyl)-amide Hydrochloride]: the 50% inhibitory concentration (IC50) at Cathepsin S came out at 18 nM; at Cat L, 42.2 µM.

With `N#CC1(NC(=O)[C@@H]2C[C@@H](S(=O)(=O)c3ccccc3Cl)CN2C(=O)C2(c3ccc(Cl)cc3)CCC2)CC1` [Example 283, (2S,4R)-4-(2-Chloro-benzenesulfonyl)-1-[1-(4-chloro-phenyl)-cyclobutanecarbonyl]-pyrrolidine-2-carboxylic acid (1-cyano-cyclopropyl)-amide], the IC50 on Cathepsin S came to 0.12 nM; on Cat L, 0.024 µM.

With `Cn1cc(-c2ccc(S(=O)(=O)[C@@H]3C[C@@H](C(=O)NC4(C#N)CC4)N(C(=O)C4(C(F)(F)F)CC4)C3)c(C(F)(F)F)c2)cn1` [Example 238, (2S,4R)-4-[4-(1-Methyl-1H-pyrazol-4-yl)-2-trifluoromethyl-benzenesulfonyl]-1-(1-trifluoromethyl-cyclopropanecarbonyl)-pyrrolidine-2-carboxylic acid (1-cyano-cyclopropyl)-amide], the IC50 on Cathepsin S was determined as 0.05 nM; on Cat L, 20.8 µM.

In the case of `N#CC1(NC(=O)[C@@H]2C[C@@H](S(=O)(=O)c3ccccc3C(F)(F)F)CN2C(=O)C2(c3ccc(Cl)nc3)CC2)CC1` [Example 361, (2S,4R)-1-[1-(6-Chloro-pyridin-3-yl)-cyclopropanecarbonyl]-4-(2-trifluoromethyl-benzenesulfonyl)-pyrrolidine-2-carboxylic acid (1-cyano-cyclopropyl)-amide], the results for the IC50 at Cathepsin S and on Cat L were 0.02 nM and 0.995 µM, respectively.

For the compound `Cc1cc(N2C[C@H](S(=O)(=O)c3ccccc3C(F)(F)F)C[C@@H]2C(=O)NC2(C#N)CC2)n(C2CCCCC2)n1` [Example 320, (2R,4R)-1-(2-Cyclohexyl-5-methyl-2H-pyrazol-3-yl)-4-(2-trifluoromethyl-benzenesulfonyl)-pyrrolidine-2-carboxylic acid (1-cyano-cyclopropyl)-amide], the IC50 is 80.5 nM at Cathepsin S and no less than 25 µM on Cat L.

Regarding `CN1CCC(C(=O)N2C[C@H](S(=O)(=O)c3ccccc3Cl)C[C@H]2C(=O)NC2(C#N)CC2)CC1` [Example 82, (2S,4R)-4-(2-Chloro-benzenesulfonyl)-1-(1-methyl-piperidine-4-carbonyl)-pyrrolidine-2-carboxylic acid (1-cyano-cyclopropyl)-amide], the IC50 at Cathepsin S came to 8.7 nM; at Cat L, 6.8 µM.

Take `N#CC1(NC(=O)[C@@H]2C[C@@H](S(=O)(=O)c3ccccc3C(F)(F)F)CN2c2cc(C3CCOCC3)nn2C2CCC2)CC1` [Example 397, (2S,4R)-1-[2-Cyclobutyl-5-(tetrahydro-pyran-4-yl)-2H-pyrazol-3-yl]-4-(2-trifluoromethyl-benzenesulfonyl)-pyrrolidine-2-carboxylic acid (1-cyano-cyclopropyl)-amide]: the IC50 at Cathepsin S came out at 0.435 nM; on Cat L, 7.2 µM.

`Cc1cc(N2C[C@H](S(=O)(=O)c3ccccc3C(F)(F)F)C[C@H]2C(=O)NC2(C#N)CC2)n(-c2nccs2)n1` [Example 234, (2S,4R)-1-(5-Methyl-2-thiazol-2-yl-2H-pyrazol-3-yl)-4-(2-trifluoromethyl-benzenesulfonyl)-pyrrolidine-2-carboxylic acid (1-cyano-cyclopropyl)-amide]: the IC50 was 1.57 nM on Cathepsin S and no less than 25 µM on Cat L.

For `Cc1cc(N2C[C@H](S(=O)(=O)CC3CC3)C[C@H]2C(=O)NC2(C#N)CC2)n(CC(F)(F)F)n1` [Example 467, (2S,4R)-4-Cyclopropylmethanesulfonyl-1-[5-methyl-2-(2,2,2-trifluoro-ethyl)-2H-pyrazol-3-yl]-pyrrolidine-2-carboxylic acid (1-cyano-cyclopropyl)-amide], the IC50 at Cathepsin S is 2080 nM. Besides, on Cat L (@25 uM compound), the “CatL, % @25 uM” value worked out at 95% @25 uM.

Regarding `CCN1CCN(c2ccc(S(=O)(=O)[C@@H]3C[C@@H](C(=O)NC4(C#N)CC4)N(C=O)C3)c(Cl)c2)CC1` [Example 143, (2S,4R)-4-[2-Chloro-4-(4-ethyl-piperazin-1-yl)-benzenesulfonyl]-1-formyl-pyrrolidine-2-carboxylic acid (1-cyano-cyclopropyl)-amide], the IC50 amounted to 4.3 nM at Cathepsin S and 28.1 µM on Cat L.

`N#CCNC(=O)[C@@H]1C[C@@H](S(=O)(=O)c2ccccc2C(F)(F)F)CN1C(=O)OC1CCCC1` [Example 72, (2S,4R)-2-(Cyanomethyl-carbamoyl)-4-(2-trifluoromethyl-benzenesulfonyl)-pyrrolidine-1-carboxylic acid Cyclopentyl Ester]: the half-maximal inhibitory concentration (IC50) on Cathepsin S is 0.8 nM; on Cat L, no less than 25 µM.

As for `C[C@H](Oc1ccc(S(=O)(=O)[C@H]2CN[C@H](C(=O)NC3(C#N)CC3)C2)c(Cl)c1)C(F)(F)F` [Example 230, (2S,4R)-4-[2-Chloro-4-((S)-2,2,2-trifluoro-1-methyl-ethoxy)-benzenesulfonyl]-pyrrolidine-2-carboxylic acid (1-cyano-cyclopropyl)-amide], the results for the IC50 at Cathepsin S and at Cat L were 15.3 nM and 14.8 µM, respectively.

As for `Cc1cc(N2C[C@H](S(=O)(=O)c3ccccc3)C[C@H]2C(=O)NC2(C#N)CC2)n(-c2ccc(C(F)(F)F)cc2)n1` [Example 261, (2S,4R)-4-Benzenesulfonyl-1-[5-methyl-2-(4-trifluoromethyl-phenyl)-2H-pyrazol-3-yl]-pyrrolidine-2-carboxylic acid (1-cyano-cyclopropyl)-amide], the IC50 came to 12 nM at Cathepsin S and 27 µM on Cat L.

One may read the IC50 as the concentration at which inhibition is half-maximal.
